For 3 compounds, IC50 results are on record in patent US20070032508A1, “Quinazoline derivatives as tyrosine kinase inhibitors” (priority 2003, published 2007).

For orientation: IC50 means the concentration that gives 50% inhibition.

In experiment [1] the target is T1, EGFR tyrosine kinase (Homo sapiens, UniProt P00533).
T1 construct: Recombinant intracellular fragments of EGFR, erbB2 and erbB4; made in house; host or cells: baculovirus/Sf21 insect cells (cleared lysate used)
The experiment is described as follows: Test (a) protein tyrosine kinase phosphorylation assay, EGFR. It counts as biochemical. The note with it: recombinant intracellular fragment, ATP at Km; read-out: IC50 Test (a): Inhibition of EGFR tyrosine kinase protein phosphorylation. The procedure:
(§1) A) Protein Tyrosine Kinase Phosphorylation Assays
This test measures the ability of a test compound to inhibit the phosphorylation of a tyrosine containing polypeptide substrate by EGFR tyrosine kinase enzyme.
(§2) Recombinant intracellular fragments of EGFR, erbB2 and erbB4 (accession numbers X00588, X03363 and L07868 respectively) were cloned and expressed in the baculovirus/Sf21 system. Lysates were prepared from these cells by treatment with ice-cold lysis buffer (20 mM N-2-hydroxyethylpiperizine-N′-2-ethanesulfonic acid (HEPES) pH7.5, 150 mM NaCl, 10% glycerol, 1% Triton X-100, 1.5 mM MgCl2, 1 mM ethylene glycol-bis(β-aminoethyl ether) N′,N′,N′,N′-tetraacetic acid (EGTA), plus protease inhibitors and then cleared by centrifugation.
(§3) Constitutive kinase activity of these recombinant proteins was determined by their ability to phosphorylate a synthetic peptide (made up of a random co-polymer of Glutamic Acid, Alanine and Tyrosine in the ratio of 6:3:1). Specifically, Maxisorb™ 96-well immunoplates were coated with synthetic peptide (0.2 μg of peptide in a 200 μl phosphate buffered saline (PBS) solution and incubated at 4° C. overnight). Plates were washed in 50 mM HEPES pH 7.4 at room temperature to remove any excess unbound synthetic peptide. […]
(§4) The immobilised phospho-peptide product of the reaction was detected by immunological methods. […] After further washing, HRP activity in each well of the plate was measured […] using 22′-Azino-di-[3-ethylbenzthiazoline sulfonate (6)] diammonium salt crystals (ABTS™ from Roche) as a substrate.
(§5) Quantification of colour development and thus enzyme activity was achieved by the measurement of absorbance at 405 nm on a Molecular Devices ThermoMax microplate reader. Kinase inhibition for a given compound was expressed as an IC50 value. […] The range of phosphorylation was calculated from the positive (vehicle plus ATP) and negative (vehicle minus ATP) control values.

Experiment [2] concerns the target T2, erbB2 tyrosine kinase (Homo sapiens, UniProt P04626).
T2 construct: Recombinant intracellular fragments of EGFR, erbB2 and erbB4; made in house; host or cells: baculovirus/Sf21 insect cells (cleared lysate used)
The experiment is described as follows: Test (a) protein tyrosine kinase phosphorylation assay, erbB2. It counts as biochemical. The conditions noted are these: recombinant intracellular fragment, ATP at Km; read-out: IC50 Test (a): Inhibition of erbB2 tyrosine kinase protein phosphorylation. The procedure:
as §1, §2, §3, §4, §5

Experiment [3] concerns the target T3, erbB2 in a MCF7 derived cell line (Clone 24 cells) (Homo sapiens, UniProt P04626).
T3 construct: a cell line that overexpresses full length wild type erbB2 protein; expressed in transfected cells; host or cells: MCF7 (breast carcinoma) cells, 'Clone 24'
Put plainly: Test (c) Clone 24 phospho-erbB2 cell assay. It counts as cell-based. The conditions noted are these: Clone 24 cells (MCF7 transfected with full length erbB2), 4 hrs with compound; read-out: IC50 Test (c): Inhibition of erbB2 tyrosine kinase protein phosphorylation. As for the experimental part: c) Clone 24 phospho-erbB2 Cell Assay
This immunofluorescence end point assay measures the ability of a test compound to inhibit the phosphorylation of erbB2 in a MCF7 (breast carcinoma) derived cell line which was generated by transfecting MCF7 cells with the full length erbB2 gene using standard methods to give a cell line that overexpresses full length wild type erbB2 protein (hereinafter ‘Clone 24’ cells).
Clone 24 cells were cultured in Growth Medium (phenol red free Dulbecco's modified Eagle's medium (DMEM) containing 10% foetal bovine serum, 2 mM glutamine and 1.2 mg/ml G418) in a 7.5% CO2 air incubator at 37° C. Cells were harvested from T75 stock flasks by washing once in PBS phosphate buffered saline, pH7.4, Gibco No. 10010-015) and harvested using 2 mls of Trypsin (1.25 mg/ml)/ethylaminediaminetetraacetic acid (EDTA) (0.8 mg/ml) solution. The cells were resuspended in Growth Medium. Cell density was measured using a haemocytometer and viability was calculated using Trypan Blue solution before being further diluted in Growth Medium and seeded at a density of 1×10^4 cells per well (in 100 ul) into clear bottomed 96 well plates (Packard, No. 6005182).
3 days later, Growth Medium was removed from the wells and replaced with 100 ul Assay Medium (phenol red free DMEM, 2 mM glutamine, 1.2 mg/ml G418) either with or without erbB inhibitor compound. Plates were returned to the incubator for 4 hrs and then 20 μl of 20% formaldehyde solution in PBS was added to each well and the plate was left at room temperature for 30 minutes. This fixative solution was removed with a multichannel pipette, 100 μl of PBS was added to each well and then removed with a multichannel pipette and then 50 μl PBS was added to each well. Plates were then sealed and stored for up to 2 weeks at 4° C.
Immunostaining was performed at room temperature. […]
The Fluorescence signal is each well was measured using an Acumen Explorer Instrument (Acumen Bioscience Ltd.), a plate reader that can be used to rapidly quantitate features of images generated by laser-scanning. […]

T2 sequence (P04626 676-1255 limits assumed): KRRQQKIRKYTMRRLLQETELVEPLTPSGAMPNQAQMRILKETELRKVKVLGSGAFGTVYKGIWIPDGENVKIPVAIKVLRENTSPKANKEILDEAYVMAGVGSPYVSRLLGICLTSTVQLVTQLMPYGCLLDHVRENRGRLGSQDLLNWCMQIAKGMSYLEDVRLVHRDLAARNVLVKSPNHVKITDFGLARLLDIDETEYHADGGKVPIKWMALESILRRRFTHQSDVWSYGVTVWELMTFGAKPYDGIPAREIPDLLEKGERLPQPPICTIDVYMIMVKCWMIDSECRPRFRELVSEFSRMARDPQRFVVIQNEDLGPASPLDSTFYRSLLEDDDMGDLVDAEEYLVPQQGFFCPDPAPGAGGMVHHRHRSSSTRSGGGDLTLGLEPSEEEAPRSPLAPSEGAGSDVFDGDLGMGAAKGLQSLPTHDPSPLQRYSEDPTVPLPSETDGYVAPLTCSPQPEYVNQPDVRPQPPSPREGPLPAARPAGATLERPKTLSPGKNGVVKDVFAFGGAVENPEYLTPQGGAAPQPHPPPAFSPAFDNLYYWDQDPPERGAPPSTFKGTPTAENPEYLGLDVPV
T1 sequence (P00533 669-1210 limits assumed): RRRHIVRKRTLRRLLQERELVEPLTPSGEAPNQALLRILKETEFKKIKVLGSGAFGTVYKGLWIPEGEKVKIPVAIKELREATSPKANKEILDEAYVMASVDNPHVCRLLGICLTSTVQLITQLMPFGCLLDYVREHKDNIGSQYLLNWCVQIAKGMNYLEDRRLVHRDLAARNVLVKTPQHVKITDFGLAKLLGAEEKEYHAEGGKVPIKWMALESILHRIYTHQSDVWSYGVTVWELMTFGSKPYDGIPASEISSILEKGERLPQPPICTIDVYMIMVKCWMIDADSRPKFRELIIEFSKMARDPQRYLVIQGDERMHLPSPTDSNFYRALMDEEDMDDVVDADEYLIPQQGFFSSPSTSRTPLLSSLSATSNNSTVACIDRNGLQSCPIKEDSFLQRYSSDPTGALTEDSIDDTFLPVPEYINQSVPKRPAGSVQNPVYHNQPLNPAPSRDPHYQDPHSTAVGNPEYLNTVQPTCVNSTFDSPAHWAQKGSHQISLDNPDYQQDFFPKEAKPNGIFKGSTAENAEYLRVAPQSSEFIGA
T3 sequence (P04626 23-1255): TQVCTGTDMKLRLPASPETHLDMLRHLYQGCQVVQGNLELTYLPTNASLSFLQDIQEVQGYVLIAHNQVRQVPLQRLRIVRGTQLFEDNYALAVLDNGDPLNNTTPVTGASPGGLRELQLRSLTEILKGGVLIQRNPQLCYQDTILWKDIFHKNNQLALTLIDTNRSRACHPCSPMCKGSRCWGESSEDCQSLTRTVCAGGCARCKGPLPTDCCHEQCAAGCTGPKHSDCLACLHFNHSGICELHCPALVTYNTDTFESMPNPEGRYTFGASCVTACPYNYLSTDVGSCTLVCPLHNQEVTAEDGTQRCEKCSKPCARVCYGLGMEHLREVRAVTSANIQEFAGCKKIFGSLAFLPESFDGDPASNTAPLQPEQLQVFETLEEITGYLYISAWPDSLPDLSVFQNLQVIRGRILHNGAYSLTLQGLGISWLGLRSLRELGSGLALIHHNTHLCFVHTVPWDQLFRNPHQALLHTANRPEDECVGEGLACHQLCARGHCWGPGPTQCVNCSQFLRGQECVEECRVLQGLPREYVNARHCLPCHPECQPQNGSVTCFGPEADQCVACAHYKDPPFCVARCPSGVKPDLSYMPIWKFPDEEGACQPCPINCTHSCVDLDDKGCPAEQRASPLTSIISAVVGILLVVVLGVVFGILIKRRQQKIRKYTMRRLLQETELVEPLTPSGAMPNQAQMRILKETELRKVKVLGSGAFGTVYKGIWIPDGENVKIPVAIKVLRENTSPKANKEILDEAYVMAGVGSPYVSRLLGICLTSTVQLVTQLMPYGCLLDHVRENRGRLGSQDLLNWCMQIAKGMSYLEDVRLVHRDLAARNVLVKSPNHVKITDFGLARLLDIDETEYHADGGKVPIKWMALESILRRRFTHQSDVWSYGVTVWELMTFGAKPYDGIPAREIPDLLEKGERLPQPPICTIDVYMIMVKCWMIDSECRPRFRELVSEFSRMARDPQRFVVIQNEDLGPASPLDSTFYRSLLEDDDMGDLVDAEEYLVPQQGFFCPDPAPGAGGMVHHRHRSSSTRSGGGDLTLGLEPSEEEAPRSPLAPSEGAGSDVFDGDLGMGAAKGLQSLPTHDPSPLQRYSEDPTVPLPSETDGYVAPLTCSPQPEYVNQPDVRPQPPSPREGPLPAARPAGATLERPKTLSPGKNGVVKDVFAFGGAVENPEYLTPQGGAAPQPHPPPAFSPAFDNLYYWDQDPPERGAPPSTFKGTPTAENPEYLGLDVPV

For the compound `CN(C)CC(=O)N1CCC(Oc2ccc3ncnc(Nc4ccc(OCc5ccccn5)c(Cl)c4)c3c2)CC1` [Example 8], the results for the 50% inhibitory concentration (IC50) in experiment [1], in experiment [2] and in experiment [3] were 0.039 µM, 0.002 µM and 0.21 µM, respectively.

For `CN(C)CC(=O)N1CCC(Oc2ccc3ncnc(Nc4ccc(OCc5cnccn5)c(Cl)c4)c3c2)CC1` [Example 9, N-[3-chloro-4-(pyrazin-2-ylmethoxy)phenyl]-6-({1-[(dimethylamino)acetyl]piperidin-4-yl}oxy)quinazolin-4-amine], the figures for the IC50 in experiment [1], in experiment [2] and in experiment [3] were 0.021 µM, 0.007 µM and 0.15 µM, respectively.

For `CS(=O)(=O)N1CCC(COc2ccc3ncnc(Nc4ccc(OCc5ccccn5)c(Cl)c4)c3c2)C1` (stereo not drawn) [Example 14, N-[3-Chloro-4-(pyridin-2-ylmethoxy)phenyl]-6-{[1-(methylsulfonyl)pyrrolidin-3-yl]methoxy}quinazolin-4-amine], the values for the IC50 in experiment [1], in experiment [2] and in experiment [3] were 0.213 µM, 0.002 µM and 0.004 µM, respectively.
